In patent publication EP1948196B1, “USE OF TETRAORGANOSILICON COMPOUNDS” (Salama, Zoser B., priority 2005, dated 2007):
≈ marks a conversion by molar mass, not a printed value. Read-outs that look alike come from different tables or passages of the source. Numbered stars: 1 amine (or outer) side, 2 acyl side, 3 side chain; on linkers, the order of the positions; unused ones are H or OH. Bridge positions count the residues as written; N and C are the ends. Peptide text beside a SMILES is read from it. I, II: the chains in the order shown. X2 = c1ccc([Si](O[*:1])(O[*:2])c2ccccc2)cc1

How the values were obtained:
[1] = test system: Kälber-Aortenendothelzellinie BKEz-7; test: tissue or blood; type: cell-based; details: for IC50: suspensions, 48 Stunden bei 37°C
Source text: Prüfung auf zytotoxisches Potential an Kälber-Aortenendothelzellinie BKEz-7
Als Marker für eine zytotoxische Wirkung wird bei Zellen der charakterisierten Kälber-Aortenendothelzellinie BKEz-7 die Hemmkonzentration ermittelt, bei der eine 50%-ige Hemmung der Zellproliferation erfolgt (im Vergleich zu Kontrollkulturen ohne Zusatz eines Zellinhibitors). Die resultierende Reduzierung der Zellzahl um 50% wird als IC 50 ausgedrückt. Die getesteten Silanverbindungen wurden als Suspensionen auf die Kulturen gegeben und 48 Stunden bei 37°C inkubiert. Zusätzlich erfolgten morphologische Kontrollen und Vitalitätsbestimmungen mittels dem Neutralrot-Test. Mit Ausnahme des Di(dodecanoyloxy)dimethylsilans standen alle Ergebnisse der morphologischen Untersuchungen in guter Übereinstimmung. […]

Basalzellkarzinome = test: Effect on basal cell carcinomas
Maus = test: Pharmacological observation in the mouse (central, vegetative and toxic effects, acute toxicity); type: in vivo; details: for oLD (orienberende letale Dosis): mouse, in vivo
Source text: Pharmakologische Untersuchungen an der Maus
Die Verbindungen wurden an der Maus auf zentrale, vegetative und toxische Effekte geprüft. Durch systemische Einzelbeobachtungen sind neben der akuten Toxizität (orienberende letale Dosis, oLD) zentrale und vegetative Wirkungen der Testsubstanzen, insbesondere Effekte auf die Motorik und das Reaktionsvermögen, die Haut- und Rektaltemperatur sowie auf die Pupillenmotorik erfasst worden. Die getesteten Dosierungen betrugen 5 •10^-4, 1 • 10^-3 und 5 • 10^-3 mol/kg Körpergewicht Letale Wirkungen konnten bei keiner der Verbindungen beobachtet werden. Die oLD lag für Di(tetradecanoyloxy)dimethylsilan und Di(octadecanoyloxy)dimethylsilan unter 1 • 10^-3 mol/kg Körpergewicht für alle übrigen Verbindungen unter 5 • 10^-3 mollkg Körpergewicht.

Angiosarkome = test: Effect on angiosarcomas
colo205 (Kofon-Karzinom) = test: MTT test, triplicate, two-fold dilutions; type: cell-based; details: Homo sapiens
Procedure: (§1) Die Silan wurden in Ethanol aufgelöst und in Zellkulturmedien in Konzentrationen von bis zu 500 µg/ml resuspendiert. Es wurden MTT Tests in dreifacher Ausführung durchgeführt, für welche doppelte Lösungen (7 Schritte) und colo205 (Kofon-Karzinom), BxPC3 (pankreatisches Adenokarzinom) sowie T47D (Brustkrebs) benutzt wurden.

T47D (Brustkrebs) = test: MTT test, triplicate, two-fold dilutions; type: cell-based; details: Homo sapiens, T47D, read-out: IC50 T47D
Procedure: as §1

[2] = test system: BxPC3 (pankreatisches Adenokarzinom); test: MTT test, triplicate, two-fold dilutions; type: cell-based; details: Homo sapiens
Procedure: as §1

Osteosarkome = test: Effect on osteosarcomas
Lymphome = test: Effect on lymphomas
Seminome = test: Effect on seminomas
[3] = COLO 205, read-out: IC50 Colo205

## CCCCCCCCCC(=O)O[Si](OC(=O)CCCCCCCCC)(c1ccccc1)c1ccccc1 [Di(decanoyloxy)diphenylsilan]
[1]
  Bedenkliche Toxizität: -
  IC50: 14 µM
Basalzellkarzinome
  Wirkung auf Basalzellkarzinome: zeigen eine Wirkung
Maus; 1•10^-3 mol/kg
  zentrale, vegetative und toxische Effekte (Verhaltensänderungen): keine Verhaltensänderungen
Maus; 5•10^-3 mol/kg
  zentrale, vegetative und toxische Effekte (Verhaltensänderungen): schwache Ataxie
Maus; 5•10^-4 mol/kg
  zentrale, vegetative und toxische Effekte (Verhaltensänderungen): keine Verhaltensänderungen

## CC(C)[C@H](N)C(=O)N[C@H](C(=O)N[C@H](C(=O)N[C@H](C(=O)N[C@H](C(=O)N[C@H](C(=O)N[C@H](C(=O)N[C@H](C(=O)O[Si](OC(=O)[C@@H](NC(=O)[C@@H](NC(=O)[C@@H](NC(=O)[C@@H](NC(=O)[C@@H](NC(=O)[C@@H](NC(=O)[C@@H](NC(=O)[C@@H](N)C(C)C)C(C)C)C(C)C)C(C)C)C(C)C)C(C)C)C(C)C)C(C)C)(c1ccccc1)c1ccccc1)C(C)C)C(C)C)C(C)C)C(C)C)C(C)C)C(C)C)C(C)C [Diphenyl bis(octavalyl)silylester] (I: H-VVVVVVVV / II: H-VVVVVVVV; linker I:C-II:C via X2)
Angiosarkome
  Wirkung gegen Angiosarkome: zeigen eine Wirkung

## C[C@H](N)C(=O)N[C@@H](C)C(=O)N[C@@H](C)C(=O)N[C@@H](C)C(=O)N[C@@H](C)C(=O)N[C@@H](C)C(=O)N[C@@H](C)C(=O)N[C@@H](C)C(=O)N[C@@H](C)C(=O)N[C@@H](C)C(=O)O[Si](OC(=O)[C@H](C)NC(=O)[C@H](C)NC(=O)[C@H](C)NC(=O)[C@H](C)NC(=O)[C@H](C)NC(=O)[C@H](C)NC(=O)[C@H](C)NC(=O)[C@H](C)NC(=O)[C@H](C)NC(=O)[C@H](C)N)(c1ccccc1)c1ccccc1 [Diphenyl bis(decaalanyl)silylester]
Angiosarkome
  Wirkung gegen Angiosarkome: zeigen eine Wirkung

## CCCCCCCC(=O)O[Si](OC(=O)CCCCCCC)(c1ccccc1)c1ccccc1 [Di(octanoyloxy)diphenylsilan]
[1]
  Bedenkliche Toxizität: -
  IC50: > 20 µM
Basalzellkarzinome
  Wirkung auf Basalzellkarzinome: zeigen eine Wirkung
Maus; 1•10^-3 mol/kg
  zentrale, vegetative und toxische Effekte (Verhaltensänderungen): Ataxie, Hyper-aktivität
Maus; 5•10^-3 mol/kg
  zentrale, vegetative und toxische Effekte (Verhaltensänderungen): schwache Ataxie, Hyperaktivität
Maus; 5•10^-4 mol/kg
  zentrale, vegetative und toxische Effekte (Verhaltensänderungen): schwache Hyperaktivität

## CCCCCCCCCCCCCCCC(=O)O[Si](OC(=O)CCCCCCCCCCCCCCC)(c1ccccc1)c1ccccc1 [Si 8, Di (hexadecanoyloxy) diphenylsilan]
colo205 (Kofon-Karzinom); COLO 205, up to 500 µg/ml, read-out: IC50 Colo205
  IC50: 300 µg/mL (≈ 433 µM)
T47D (Brustkrebs); up to 500 µg/ml
  IC50: 20 µg/mL (≈ 28.9 µM)
[2]; BXPC-3, up to 500 µg/ml, read-out: IC50 BxPC3
  IC50: 30 µg/mL (≈ 43.3 µM)
Basalzellkarzinome
  Wirkung auf Basalzellkarzinome: zeigen eine Wirkung
Maus; 1•10^-3 mol/kg
  zentrale, vegetative und toxische Effekte (Verhaltensänderungen): keine Verhaltensänderungen
Maus; 5•10^-3 mol/kg
  zentrale, vegetative und toxische Effekte (Verhaltensänderungen): schwache Ataxie, Hyperaktivität und Piloerektion, Straubtail
Maus; 5•10^-4 mol/kg
  zentrale, vegetative und toxische Effekte (Verhaltensänderungen): keine Verhaltensänderungen

## CCCCCCCC(=O)O[Si](C)(C)OC(=O)CCCCCCC [Di(octanoyloxy)dimethylsilan]
Osteosarkome
  Wirkung auf Osteosarkome: zeigen eine Wirkung

## CC(C)[C@H](N)C(=O)N[C@H](C(=O)N[C@H](C(=O)N[C@H](C(=O)N[C@H](C(=O)N[C@H](C(=O)O[Si](OC(=O)[C@@H](NC(=O)[C@@H](NC(=O)[C@@H](NC(=O)[C@@H](NC(=O)[C@@H](NC(=O)[C@@H](N)C(C)C)C(C)C)C(C)C)C(C)C)C(C)C)C(C)C)(c1ccccc1)c1ccccc1)C(C)C)C(C)C)C(C)C)C(C)C)C(C)C [Diphenyl bis(hexavalyl)silylester] (I: H-VVVVVV / II: H-VVVVVV; linker I:C-II:C via X2)
Angiosarkome
  Wirkung gegen Angiosarkome: zeigen eine Wirkung

## CC/C=C\C/C=C\C/C=C\CCCCCCCC(=O)O[Si](C)(C)OC(=O)CCCCCCC/C=C\C/C=C\C/C=C\CC [Di (lino-lenoylooxy)dimethylsilan]
Lymphome
  Wirkung auf Lymphome: zeigen eine Wirkung

## CCCCCCCCC(=O)O[Si](C)(C)OC(=O)CCCCCCCC [Di(nonanoyloxy)dimethylsilan]
Osteosarkome
  Wirkung auf Osteosarkome: zeigen eine Wirkung

## CCCCCCCCCCCCC(=O)O[Si](CC)(CC)OC(=O)CCCCCCCCCCCC [Si 6, Di (tridecanoyloxy) diethylsilan]
colo205 (Kofon-Karzinom); [3]
  IC50: 240 µg/mL (≈ 468 µM)
T47D (Brustkrebs)
  IC50: 250 µg/mL (≈ 487 µM)
[2]; BXPC-3, read-out: IC50 BxPC3
  IC50: 150 µg/mL (≈ 292 µM)

## CCCCCCCCCCCCCCCCCC(=O)O[Si](C)(C)OC(=O)CCCCCCCCCCCCCCCCC [Di(octadecanoyloxy)dimethylsilan]
Osteosarkome
  Wirkung auf Osteosarkome: zeigen eine Wirkung
[1]
  Bedenkliche Toxizität: -
  IC50: 495 µM
Maus; 1•10^-3 mol/kg
  zentrale, vegetative und toxische Effekte (Verhaltensänderungen): keine Verhaltensänderungen
Maus; 5•10^-4 mol/kg
  zentrale, vegetative und toxische Effekte (Verhaltensänderungen): keine Verhaltensänderungen
Maus
  oLD (orienberende letale Dosis): < 1 • 10^-3 mol/kg Körpergewicht

## CCCCCCCC/C=C\CCCCCCCC(=O)O[Si](C)(C)OC(=O)CCCCCCC/C=C\CCCCCCCC
Lymphome
  Wirkung auf Lymphome: zeigen eine Wirkung

## CCCCCCCCCCCCCC(=O)O[Si](C)(C)OC(=O)CCCCCCCCCCCCC [Di(tetradecanoyloxy)dimethylsilan]
Osteosarkome
  Wirkung auf Osteosarkome: zeigen eine Wirkung
[1]
  Bedenkliche Toxizität: -
  IC50: 110 µM
Maus; 1•10^-3 mol/kg
  zentrale, vegetative und toxische Effekte (Verhaltensänderungen): Ataxie
Maus; 5•10^-4 mol/kg
  zentrale, vegetative und toxische Effekte (Verhaltensänderungen): schwache Ataxie, Piloerektion
Maus
  oLD (orienberende letale Dosis): < 1 • 10^-3 mol/kg Körpergewicht

## CCCCCCCCCC(=O)O[Si](C)(C)OC(=O)CCCCCCCCC [Di(decanoyloxy)dimethylsilan]
Osteosarkome
  Wirkung auf Osteosarkome: zeigen eine Wirkung
Maus; 1•10^-3 mol/kg
  zentrale, vegetative und toxische Effekte (Verhaltensänderungen): Piloerektion
Maus; 5•10^-3 mol/kg
  zentrale, vegetative und toxische Effekte (Verhaltensänderungen): schwach bis mäßig ausgeprägte Verhaltensänderung en
Maus; 5•10^-4 mol/kg
  zentrale, vegetative und toxische Effekte (Verhaltensänderungen): keine Verhaltensänderungen

## CCCCCCCCCC(=O)O[Si](CCC)(CCC)OC(=O)CCCCCCCCC [Di(decanoyloxy)dipropylsilan]
Seminome
  Wirkung auf Seminome: zeigen eine Wirkung

## CCCCCCCCC(=O)O[Si](CCC)(CCC)OC(=O)CCCCCCCC [Di(nonanoyloxy)dipropylsilan]
Seminome
  Wirkung auf Seminome: zeigen eine Wirkung

## CCCCCCCCCCCCCCCCCC(=O)O[Si](OC(=O)CCCCCCCCCCCCCCCCC)(C(C)C)C(C)C [Di(octadecanoyloxy)diisopropylsilan]
Lymphome
  Wirkung auf Lymphome: zeigen eine Wirkung

## CCCCC/C=C\C/C=C\CCCCCCCC(=O)O[Si](C)(C)OC(=O)CCCCCCC/C=C\C/C=C\CCCCC [Di(linoylooxy)dimethylsilan]
Lymphome
  Wirkung auf Lymphome: zeigen eine Wirkung

## CCCCCCCCCCC(=O)O[Si](CCC)(CCC)OC(=O)CCCCCCCCCC [Di(undecanoyloxy) dipropylsilan]
Seminome
  Wirkung auf Seminome: zeigen eine Wirkung

## CCCCC/C=C\C/C=C\CCCCCCCC(=O)O[Si](CC)(CC)OC(=O)CCCCCCC/C=C\C/C=C\CCCCC [Di(linoylooxy)diethylsilan]
Lymphome
  Wirkung auf Lymphome: zeigen eine Wirkung

## CCCCCCCCCCCC(=O)O[Si](OC(=O)CCCCCCCCCCC)(c1ccccc1)c1ccccc1 [Di(dodecanoyloxy)diphenylsilan]
[1]
  Bedenkliche Toxizität: -
  IC50: 36 µM
Basalzellkarzinome
  Wirkung auf Basalzellkarzinome: zeigen eine Wirkung
Maus; 1•10^-3 mol/kg
  zentrale, vegetative und toxische Effekte (Verhaltensänderungen): keine Verhaltensänderungen
Maus; 5•10^-3 mol/kg
  zentrale, vegetative und toxische Effekte (Verhaltensänderungen): keine Verhaltensänderungen
Maus; 5•10^-4 mol/kg
  zentrale, vegetative und toxische Effekte (Verhaltensänderungen): keine Verhältensänderungen

## CCCCCCCCCCCCCCCCC(=O)O[Si](OC(=O)CCCCCCCCCCCCCCCC)(C(C)C)C(C)C [Di(heptadecanoyloxy)diisopropylsilan]
Lymphome
  Wirkung auf Lymphome: zeigen eine Wirkung

## CCCCCCCCCCCCCC(=O)O[Si](CC)(CC)OC(=O)CCCCCCCCCCCCC [Si 14, Di (tetradecanoyloxy) diethylsilan]
colo205 (Kofon-Karzinom); [3]
  IC50: 250 µg/mL (≈ 462 µM)
T47D (Brustkrebs)
  IC50: 65 µg/mL (≈ 120 µM)
[2]; BXPC-3, read-out: IC50 BxPC3
  IC50: 70 µg/mL (≈ 129 µM)
